Data published in patent publication US20100216886A1, “POLYMORPHS OF N2-(1,1'-BIPHENYL-4-YLCARBONYL)-N1-[2-(4-FLUOROPHENYL)-1,1-DIMETHYLETHYL]-L-ALPHA-GLUTAMINE” (Wyeth, priority 2006, published 2010).
Values after ≈ are worked out from the molar mass of the structure shown.

Experiments:
Assay type in all cases: physicochemical
[1] = Dynamic Vapor Sorption (DVS) analysis; conditions: room temperature, 6-hour equilibration period
Description: Sample F was subject to Dynamic Vapor Sorption (DVS) analysis at room temperature. The sample was first analyzed by Karl Fischer (KF) titration containing initial moisture content of 3.7% for the monohydrate form. RH cycling started at 50% relative humidity (RH) to 100% RH and down to 0% RH and then back up to 100% RH. A 3-hour/step equilibration period was found insufficient, so the run was repeated with a 6-hour period, which was still not sufficient.
As a result, an equilibrium moisture study using desiccators containing saturated salt solutions for humidity control was performed. Sample F was incubated at 0%, 15%, 31%, 66%, 87%, and 100% RH in room temperature for up to 20 days. Samples were periodically assayed by KF titration to give the kinetic profiles. XRD analysis was performed at the end of 20 days. The data is summarized in Table 8 with kinetic and equilibrium data plotted in FIGS. 18 and 19.

[2] = Equilibrium moisture study in desiccators with saturated salt solutions (KF, XRD); conditions: for Moisture (%) 1-day / Moisture (%) 3-day / Moisture (%) 7-day / Moisture (%) 20-day / XRD Polymorph / Moisture (%) 4-day: room temperature; for XRD Polymorph: end of 20 days
Method: As a result, an equilibrium moisture study using desiccators containing saturated salt solutions for humidity control was performed. […] Samples were periodically assayed by KF titration to give the kinetic profiles. XRD analysis was performed at the end of 20 days. The data is summarized in Table 8 with kinetic and equilibrium data plotted in FIGS. 18 and 19.

[3] = Solid state stability
Method: Sample F containing polymorph Form B was further investigated at 40° C./75% RH using open and closed vials for 3 months. […] Therefore, the monohydrate needs to be stored in hermetically sealed containers in order to prevent conversion to the sesquihydrate.

[4] = Polymorphic conversion study in aqueous media (2% Tween 80, water)
Description: Polymorphic conversion of Form A to Form B was not observed with Sample D in 2% Tween 80 or water.
Polymorph pseudo Form A was obtained from a scaled up preparation of polymorph Form A (Sample E).
The polymorphic conversion appeared to be slower in water than in the 2% Tween suspension, probably due to the lower solubility in water.
DSC data also supported this observation (FIG. 11).

[5] = Solubility in water and 2% Tw80 of samples used in toxicological formulation assessments; conditions: 2% Tw80
Description: Table 6 summarizes various solid-state properties of samples used in toxicological formulation assessments.

[6] = Slurry in water at 50° C. (polymorphic transformation); conditions: slurry in water at 50° C. for 12-24 hr
Method: Powder XRD patterns comparing the starting material to polymorph pseudo Form A are shown in FIG. 34, and DSC thermograms of both batches at 50° C. are shown in FIG. 35.

Compound: CC(C)(Cc1ccc(F)cc1)NC(=O)[C@H](CCC(=O)O)NC(=O)c1ccc(-c2ccccc2)cc1 [Form B, N^2-(1,1′-biphenyl-4-ylcarbonyl)-N^1-[2-(4-fluorophenyl)-1,1-dimethylethyl]-L-α-glutamine]
- RH range in which the form is stable (DVS) [1]: 0-50 % RH
- Moisture (%) 1-day ([2]; 0% RH): 3.48%
- Moisture (%) 3-day ([2]; 0% RH): 3.55%
- Moisture (%) 7-day ([2]; 0% RH): 3.57%
- Moisture (%) 20-day ([2]; 0% RH): 2.78%
- XRD Polymorph ([2]; 0% RH): Pattern B, Form B
- Moisture (%) 1-day ([2]; 15% RH): 3.97%
- Moisture (%) 4-day ([2]; 15% RH): 3.99%
- Moisture (%) 7-day ([2]; 15% RH): 3.74%
- Moisture (%) 20-day ([2]; 15% RH): 3.79%
- XRD Polymorph ([2]; 15% RH): Pattern B, Form B
- Moisture (%) 1-day ([2]; 31% RH): 3.61%
- Moisture (%) 4-day ([2]; 31% RH): 5.01%
- Moisture (%) 7-day ([2]; 31% RH): 3.93%
- Moisture (%) 20-day ([2]; 31% RH): 3.79%
- XRD Polymorph ([2]; 31% RH): Pattern B, Form B
- Moisture (%) 1-day ([2]; 47% RH): 3.81%
- Moisture (%) 3-day ([2]; 47% RH): 3.73%
- Moisture (%) 7-day ([2]; 47% RH): 4.00%
- Moisture (%) 20-day ([2]; 47% RH): 4.19%
- XRD Polymorph ([2]; 47% RH): Pattern B, Form B
- Moisture (%) 1-day ([2]; 66% RH): 5.12%
- Moisture (%) 4-day ([2]; 66% RH): 5.28%
- Moisture (%) 7-day ([2]; 66% RH): 5.34%
- Moisture (%) 20-day ([2]; 66% RH): 5.1%
- XRD Polymorph ([2]; 66% RH): Pattern C, Form C
- Moisture (%) 1-day ([2]; 84% RH): 5.55%
- Moisture (%) 3-day ([2]; 84% RH): 5.43%
- Moisture (%) 7-day ([2]; 84% RH): 5.55%
- Moisture (%) 20-day ([2]; 84% RH): 5.71%
- XRD Polymorph ([2]; 84% RH): Pattern C, Form C
- Moisture (%) 1-day ([2]; 100% RH): 5.55%
- Moisture (%) 4-day ([2]; 100% RH): 8.08%
- Moisture (%) 7-day ([2]; 100% RH): 6.14%
- Moisture (%) 20-day ([2]; 100% RH): 6.22%
- XRD Polymorph ([2]; 100% RH): Pattern C, Form C
- RH range at which the form is present by XRD ([2]; Sample F incubated at room temperature, 20 days, listed as monohydrate): 0-47 % RH
- Moisture (%) T = 0 ([2]; initial, KF titration): 3.82%
- HPLC Impurity (%) ([3]; 40 C./75% RH Closed, 4 wk): 0.34%
- KF (%) ([3]; 40 C./75% RH Closed, 4 wk): 5.35%
- XRD Polymorph ([3]; 40 C./75% RH Closed, 4 wk): Form C Pattern C
- HPLC Impurity (%) ([3]; 40 C./75% RH Closed, 8 wk): 0.41%
- KF (%) ([3]; 40 C./75% RH Closed, 8 wk): 5.79%
- XRD Polymorph ([3]; 40 C./75% RH Closed, 8 wk): Form C Pattern C
- HPLC Impurity (%) ([3]; 40 C./75% RH Open, 4 wk): 0.36%
- KF (%) ([3]; 40 C./75% RH Open, 4 wk): 5.34%
- XRD Polymorph ([3]; 40 C./75% RH Open, 4 wk): Form C Pattern C
- HPLC Impurity (%) ([3]; 40 C./75% RH Open, 8 wk): 0.49%
- KF (%) ([3]; 40 C./75% RH Open, 8 wk): 5.53%
- XRD Polymorph ([3]; 40 C./75% RH Open, 8 wk): Form C Pattern C
- Duration of sufficient heat stability ([3]; 40° C./75% RH): at least 3 months
- HPLC Impurity (%) ([3]; Initial, time 0): 0.30%
- KF (%) ([3]; Initial, time 0): 3.82%
- XRD Polymorph ([3]; Initial, time 0): Form B Pattern B

Compound: CC(C)(Cc1ccc(F)cc1)NC(=O)[C@H](CCC(=O)O)NC(=O)c1ccc(-c2ccccc2)cc1 [Sample E, N^2-(1,1′-biphenyl-4-ylcarbonyl)-N^1-[2-(4-fluorophenyl)-1,1-dimethylethyl]-L-α-glutamine]
- Polymorphic conversion / Polymorph Form after stirring ([4]; suspension 100 mg/mL in 2% Tween 80, ambient conditions, about 0.5 hr): transformation of pseudo Form A to Form B
- Polymorphic conversion / Polymorph Form after stirring ([4]; suspension 100 mg/mL in water, overnight (~18 hr), ambient conditions): transformation of pseudo Form A to Form B
- Solubility, 2% Tw80 [5]: 330 µg/mL (≈ 692 µM)
- pH of 2% Tw80 solubility sample [5]: 5.6
- Change of powder XRD pattern or melting point / polymorphic transformation [6]: transformed to a lower melting point polymorph form
